The IC50 is the point on the concentration scale where inhibition reaches its midpoint. A higher IC50 goes with weaker potency.

From patent US8962810B2, “Macrocyclic heterocyclic compound for inhibiting hepatitis C virus and preparation and use thereof” (AB Pharma Ltd., priority 2011, dated 2015) come the findings set out here.

SMILES strings stand for the structures.

The target in this experiment is T1, HCV Protease (HCV NS3-4A) (Hepatitis C virus genotype 1a, UniProt P27958).
T1 construct: HCV Protease: HCV NS3-4A, self-prepared; made in house
The experiment can be described thus: HCV Protease (HCV NS3-4A) anti-activity assay, fluorescence quenching (FRET). In kind it is biochemical. How it is done: Method of HCV Protease (HCV NS3-4A) Anti-Activity Assay:
HCV Protease (HCV NS3/4A) anti-activity was measured by an inter fluorescence quenching system. EDANS group and DABCYL group were bonded on each side of a peptide. When protein cleavage started, fluorescence quenching of EDANS by DABCYL was detected. We used a high throughput screening model for HCV NS3/4A protease inhibitors, the tested drugs were prepared with 5 different concentrations, positive control and negative control were set in the same time. In the optimized reaction system, fluorescence were determined at ex=355, em=520 by a Polarstar fluorescence detector. Calculate the inhibition rate of each concentration; calculate the half maximal inhibitory concentration (IC50) with the method of Reed-Muench.
Materials: HCV Protease: HCV NS3-4A, self-prepared, stored at −70. HCV Protease substrate (FRET-S): Ac-Asp-Glu-Asp(EDANS)-Glu-Glu-Abu-ψ-[COO]-Ala-Ser-Lys-(DABCYL)-NH2, supplied by AnaSpec USA, prepared of 100 μM by DMSO, distributed and stored at −20 without light. Buffer solution: 30 mM NaCl, 5 mM CaCl2, 10 mM DTT, 50 mM Tris (pH7.8).
Instrument: fluorescence detector Polarstar from Germany Company BMG
Preparation and operation: preparation of 10 mg/mL by DMSO, dilute of 10000, 2000, 400, 80, 16 ng/mL as tested concentrations by buffer solutions, adding 20 μL into each well, the total reaction system is 200 μL, to make the final concentrations of 1000, 200, 40, 8, 1.6 ng/mL. Add 140 μL buffer solution, 20 μL drug solution, 20 μL HCV protease, and 20 μL FRET-S substrate with final concentration of 0.25 μM into 96-well fluorescence microtiterplate, the reaction started at 37, set control wells of protease-substrate reaction and of isolate substrate and isolate protease, fluorescence signals were detected by fluorescence detector (ex=355,em=520). Calculate the inhibition rates of samples for each concentration by comparison of fluorescence value of sample in each well and the fluorescence control value of enzyme, calculate the half maximal inhibitory concentration (IC50) of samples to HCV protease with the method of Reed-Muench.
THF and Et2O were distilled from sodium metal and benzophenone. DCM, pentane and hexane were distilled form calcium hydride. Special raw materials and intermediates in the invention were supplied by Zannan SciTech Co. for ordered processing, Ltd. in Shanghai, others reagents were purchased from Shanghai reagent company, Aldrich, Acros etc. If intermediates or products of synthesis were not enough for the next step of reaction, the synthesis shall be repeated until it is sufficient. The HCV protease (HCV NS3-4A) inhibitory activity assays in the present invention were performed by relevant cooperation service units of China Institutes for Biological Science in Beijing.

T1 sequence (P27958 1658-1711): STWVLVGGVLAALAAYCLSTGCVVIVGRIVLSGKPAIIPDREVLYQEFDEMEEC
T1 sequence (P27958 1027-1657): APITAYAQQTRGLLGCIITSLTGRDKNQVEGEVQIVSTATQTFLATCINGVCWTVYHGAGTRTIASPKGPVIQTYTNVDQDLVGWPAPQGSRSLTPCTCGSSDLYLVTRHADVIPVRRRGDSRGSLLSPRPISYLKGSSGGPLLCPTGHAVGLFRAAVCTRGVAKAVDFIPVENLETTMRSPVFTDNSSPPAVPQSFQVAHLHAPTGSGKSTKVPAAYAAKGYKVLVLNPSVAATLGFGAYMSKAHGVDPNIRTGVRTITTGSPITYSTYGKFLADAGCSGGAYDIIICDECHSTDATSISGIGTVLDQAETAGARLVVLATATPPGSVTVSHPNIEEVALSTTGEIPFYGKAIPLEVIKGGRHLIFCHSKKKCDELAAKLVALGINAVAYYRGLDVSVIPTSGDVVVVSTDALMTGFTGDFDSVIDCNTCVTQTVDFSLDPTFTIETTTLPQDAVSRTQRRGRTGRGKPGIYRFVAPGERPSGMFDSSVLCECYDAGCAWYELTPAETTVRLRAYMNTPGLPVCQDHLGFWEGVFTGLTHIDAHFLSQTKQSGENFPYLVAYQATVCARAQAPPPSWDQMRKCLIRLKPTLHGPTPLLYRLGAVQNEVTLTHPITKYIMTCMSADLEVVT

`CC[C@H]1C[C@@]1(NC(=O)C1C[C@@H]2CN1C(=O)[C@H](C(C)(C)C)NC(=O)OCC(C)(C)CCCCCOc1ccc3c(c1)CN(C3)C(=O)O2)C(=O)NS(=O)(=O)C1CC1` (some centres unmarked) [Compound 15bp] had an IC50 of 0.1 to 5 nM. `CC[C@H]1C[C@@]1(NC(=O)C1C[C@@H]2CN1C(=O)[C@H](C(C)(C)C)NC(=O)OCCCCCCCOc1ccc3c(c1)CN(C3)C(=O)O2)C(=O)NS(=O)(=O)C1CC1` (some centres unmarked) [Compound 15be] gave an IC50 of 0.1 to 5 nM. Next, `C=CC1CC1(NC(=O)C1CC2CN1C(=O)C(C(C)(C)C)NC(=O)OCCCCCCOc1cccc3c1CN(C3)C(=O)O2)C(=O)NS(=O)(=O)C1CC1` (centres unmarked) [Compound 15aa]: 0.1 to 5 nM; `CCC1CC1(NC(=O)C1CC2CN1C(=O)C(C(C)(C)C)NC(=O)OCC(C)(C)CCCCOc1cccc3c1CN(C3)C(=O)O2)C(=O)NS(=O)(=O)C1CC1` (centres unmarked) [Compound 15u]: 0.1 to 5 nM. Next, `CC[C@H]1C[C@@]1(NC(=O)C1C[C@@H]2CN1C(=O)[C@H](C(C)(C)C)NC(=O)OCC(C)(C)OC/C=C/COc1cccc3c1CN(C3)C(=O)O2)C(=O)NS(=O)(=O)C1CC1` (some centres unmarked) [Compound 15aj]: 0.1 to 5 nM; `C=C[C@H]1C[C@@]1(NC(=O)C1C[C@@H]2CN1C(=O)[C@H](C(C)(C)C)NC(=O)OCC/C=C/COc1c(OC)ccc3c1CN(C3)C(=O)O2)C(=O)NS(=O)(=O)C1CC1` (some centres unmarked) [Compound 15n]: 0.1 to 5 nM. To `CC[C@H]1C[C@@]1(NC(=O)C1C[C@@H]2CN1C(=O)[C@H](C(C)(C)C)NC(=O)OCC(C)(C)CCCCc1c3c(cc4c1OCO4)CN(C3)C(=O)O2)C(=O)NS(=O)(=O)C1CC1` (some centres unmarked) [Compound 15by] belongs 0.1 to 5 nM; to `C=C[C@H]1C[C@@]1(NC(=O)C1C[C@@H]2CN1C(=O)[C@H](C(C)(C)C)NC(=O)OCC1(C/C=C/COc3cccc4c3CN(C4)C(=O)O2)CC1)C(=O)NS(=O)(=O)C1CC1` (some centres unmarked) [Compound 15g], 0.1 to 5 nM. `CC[C@H]1C[C@@]1(NC(=O)C1C[C@@H]2CN1C(=O)[C@H](C(C)(C)C)NC(=O)OCCCCCCCOc1cccc3c1CN(C3)C(=O)O2)C(=O)NS(=O)(=O)C1CC1` (some centres unmarked) [Compound 15x]: the IC50 fell in the range of 0.1 to 5 nM. Compound `CC[C@H]1C[C@@]1(NC(=O)C1C[C@@H]2CN1C(=O)[C@H](C(C)(C)C)NC(=O)OCCCC/C=C\c1c3c(cc4c1OCO4)CN(C3)C(=O)O2)C(=O)NS(=O)(=O)C1CC1` (some centres unmarked) [Compound 15bw] returned an IC50 of 0.1 to 5 nM.

`C=C[C@H]1C[C@@]1(NC(=O)C1C[C@@H]2CN1C(=O)[C@H](C(C)(C)C)NC(=O)OCC(C)(C)OC/C=C/COc1cccc3c1CN(C3)C(=O)O2)C(=O)NS(=O)(=O)C1CC1` (some centres unmarked) [Compound 15ah] showed an IC50 of 0.1 to 5 nM. The compound `C=C[C@H]1C[C@@]1(NC(=O)C1C[C@@H]2CN1C(=O)[C@H](C(C)(C)C)NC(=O)OCC1(CCCCCOc3cccc4c3CN(C4)C(=O)O2)CC1)C(=O)NS(=O)(=O)C1CC1` (some centres unmarked) [Compound 15d] displayed a concentration for half-maximal inhibition (IC50) of 0.1 to 5 nM. Consider `CCC1CC1(NC(=O)C1CC2CN1C(=O)C(C(C)(C)C)NC(=O)OCC(C)(C)CCCCCOC(=O)c1ccc3c(c1)CN(C3)C(=O)O2)C(=O)NS(=O)(=O)C1CC1` (centres unmarked) [Compound 15bs], for which the IC50 lay in the range of 51 to 300 nM. Next, `CC[C@H]1C[C@@]1(NC(=O)C1C[C@@H]2CN1C(=O)[C@H](C(C)(C)C)NC(=O)OCCC/C=C/CSc1cccc3c1CN(C3)C(=O)O2)C(=O)NS(=O)(=O)C1CC1` (some centres unmarked) [Compound 15cc]: 0.1 to 5 nM; `C=CC1CC1(NC(=O)C1CC2CN1C(=O)C(C(C)(C)C)NC(=O)OCCCC=CCOc1ccc3c(c1)CN(C3)C(=O)O2)C(=O)NS(=O)(=O)C1CC1` (centres unmarked) [Compound 15bj]: 0.1 to 5 nM.

For `CC[C@H]1C[C@@]1(NC(=O)C1C[C@@H]2CN1C(=O)[C@H](C(C)(C)C)NC(=O)OCC(F)(F)CCCCOc1cccc3c1CN(C3)C(=O)O2)C(=O)NS(=O)(=O)C1CC1` (some centres unmarked) [Compound 15ba], the IC50 fell in the range of 0.1 to 5 nM. `CC[C@H]1C[C@@]1(NC(=O)C1C[C@@H]2CN1C(=O)[C@H](C(C)(C)C)NC(=O)OCCCCCOc1cccc3c1CN(C3)C(=O)O2)C(=O)NS(=O)(=O)C1CC1` (some centres unmarked) [Compound 15ag] registered an IC50 of 0.1 to 5 nM. Next, `C=C[C@H]1C[C@@]1(NC(=O)C1C[C@@H]2CN1C(=O)[C@H](C(C)(C)C)NC(=O)OCCCCCCCOc1ccc3c(c1)CN(C3)C(=O)O2)C(=O)NS(=O)(=O)C1CC1` (some centres unmarked) [Compound 15bf]: 0.1 to 5 nM. To `CCC1CC1(NC(=O)C1CC2CN1C(=O)C(C(C)(C)C)NC(=O)OCC(C)(C)CCCCCNC(=O)c1cccc3c1CN(C3)C(=O)O2)C(=O)NS(=O)(=O)C1CC1` (centres unmarked) [Compound 15bd] belongs 51 to 300 nM. In turn, `C=CC1CC1(NC(=O)C1CC2CN1C(=O)C(C(C)(C)C)NC(=O)OCCCC=Cc1c3c(cc4c1OCO4)CN(C3)C(=O)O2)C(=O)NS(=O)(=O)C1CC1` (centres unmarked) [Compound 15bt] came in with an IC50 of 0.1 to 5 nM.

In turn, `C=CC1CC1(NC(=O)C1CC2CN1C(=O)C(C(C)(C)C)NC(=O)OCC(C)(C)CC=CCOc1c(OC)ccc3c1CN(C3)C(=O)O2)C(=O)NS(=O)(=O)C1CC1` (centres unmarked) [Compound 15p] returned an IC50 of 0.1 to 5 nM.

With `CC[C@H]1C[C@@]1(NC(=O)C1C[C@@H]2CN1C(=O)[C@H](C(C)(C)C)NC(=O)OCC(C)(C)C/C=C/CSc1cccc3c1CN(C3)C(=O)O2)C(=O)NS(=O)(=O)C1CC1` (some centres unmarked) [Compound 15cb], the IC50 lay in the range of 0.1 to 5 nM. Next, `CC[C@H]1C[C@@]1(NC(=O)C1C[C@@H]2CN1C(=O)[C@H](C(C)(C)C)NC(=O)OCCC/C=C/CCOc1cccc3c1CN(C3)C(=O)O2)C(=O)NS(=O)(=O)C1CC1` (some centres unmarked) [Compound 15ap]: 0.1 to 5 nM; `C=CC1CC1(NC(=O)C1CC2CN1C(=O)C(C(C)(C)C)NC(=O)OCC(C)(C)CCCCCOc1cccc3c1CN(C3)C(=O)O2)C(=O)NS(=O)(=O)C1CC1` (centres unmarked) [Compound 15at]: 0.1 to 5 nM; `CC[C@H]1C[C@@]1(NC(=O)C1C[C@@H]2CN1C(=O)[C@H](C(C)(C)C)NC(=O)OCC(C)(C)C/C=C/COc1cccc3c1CN(C3)C(=O)O2)C(=O)NS(=O)(=O)C1CC1` (some centres unmarked) [Compound 15ar]: 0.1 to 5 nM.

In turn, `C=C[C@H]1C[C@@]1(NC(=O)C1C[C@@H]2CN1C(=O)[C@H](C(C)(C)C)NC(=O)OCC(C)(C)CC/C=C\c1c3c(cc4c1OCO4)CN(C3)C(=O)O2)C(=O)NS(=O)(=O)C1CC1` (some centres unmarked) [Compound 15bv] showed an IC50 of 0.1 to 5 nM. Next, `C=C[C@H]1C[C@@]1(NC(=O)C1C[C@@H]2CN1C(=O)[C@H](C(C)(C)C)NC(=O)OCCCCCCCOc1cccc3c1CN(C3)C(=O)O2)C(=O)NS(=O)(=O)C1CC1` (some centres unmarked) [Compound 15ab]: 0.1 to 5 nM; `CC[C@H]1C[C@@]1(NC(=O)C1C[C@@H]2CN1C(=O)[C@H](C(C)(C)C)NC(=O)OCC(C)(C)CCCCOC(=O)c1ccc3c(c1)CN(C3)C(=O)O2)C(=O)NS(=O)(=O)C1CC1` (some centres unmarked) [Compound 15br]: 51 to 300 nM; `CC[C@H]1C[C@@]1(NC(=O)C1C[C@@H]2CN1C(=O)[C@H](C(C)(C)C)NC(=O)OCC(C)(C)CC/C=C/COc1cccc3c1CN(C3)C(=O)O2)C(=O)NS(=O)(=O)C1CC1` (some centres unmarked) [Compound 15r]: 0.1 to 5 nM. To `CC[C@H]1C[C@@]1(NC(=O)C1C[C@@H]2CN1C(=O)[C@H](C(C)(C)C)NC(=O)OCC1(C/C=C/CSc3cccc4c3CN(C4)C(=O)O2)CC1)C(=O)NS(=O)(=O)C1CC1` (some centres unmarked) [Compound 15ca] belongs 0.1 to 5 nM; to `CC[C@H]1C[C@@]1(NC(=O)C1C[C@@H]2CN1C(=O)[C@H](C(C)(C)C)NC(=O)OCC(C)(C)CCCCNC(=O)c1cccc3c1CN(C3)C(=O)O2)C(=O)NS(=O)(=O)C1CC1` (some centres unmarked) [Compound 15bc], 51 to 300 nM; to `CC[C@H]1C[C@@]1(NC(=O)C1C[C@@H]2CN1C(=O)[C@H](C(C)(C)C)NC(=O)OCC1(C/C=C/COc3cccc4c3CN(C4)C(=O)O2)CC1)C(=O)NS(=O)(=O)C1CC1` (some centres unmarked) [Compound 15f], 0.1 to 5 nM.

For `C=C[C@H]1C[C@@]1(NC(=O)C1C[C@@H]2CN1C(=O)[C@H](C(C)(C)C)NC(=O)OCC(C)(C)C/C=C/COc1cccc3c1CN(C3)C(=O)O2)C(=O)NS(=O)(=O)C1CC1` (some centres unmarked) [Compound 15aq], the IC50 was 0.1 to 5 nM. To `C=CC1CC1(NC(=O)C1CC2CN1C(=O)C(C(C)(C)C)NC(=O)OCCCCCCCCOc1cccc3c1CN(C3)C(=O)O2)C(=O)NS(=O)(=O)C1CC1` (centres unmarked) [Compound 15ac] belongs 0.1 to 5 nM; to `C=C[C@H]1C[C@@]1(NC(=O)C1C[C@@H]2CN1C(=O)[C@H](C(C)(C)C)NC(=O)OCC(C)(C)CCCCCOc1ccc3c(c1)CN(C3)C(=O)O2)C(=O)NS(=O)(=O)C1CC1` (some centres unmarked) [Compound 15bn], 0.1 to 5 nM.
